Measured values: publication PMC12152883, “Bile acids inhibit equilibrative adenosine transport to alter adenosine receptor signaling in cholestasis” (The Journal of Biological Chemistry, 2025)

What was measured:
Type in all cases: cell-based
ENT2 = molecular target: T1, ENT2 (Homo sapiens, UniProt Q14542); assay: Radiolabeled BA transport in ENT2 mRNA-injected Xenopus oocytes; set-up: expressed in transfected cells; host or cells: Xenopus laevis oocytes injected with in vitro-transcribed capped mRNA from pOX-hENT2; conditions: for fold increased transport activity compared with H2O-injected oocytes: 3H-labelled BA, Na+-containing buffer, pH 7.4
T1 sequence (Q14542 1-456): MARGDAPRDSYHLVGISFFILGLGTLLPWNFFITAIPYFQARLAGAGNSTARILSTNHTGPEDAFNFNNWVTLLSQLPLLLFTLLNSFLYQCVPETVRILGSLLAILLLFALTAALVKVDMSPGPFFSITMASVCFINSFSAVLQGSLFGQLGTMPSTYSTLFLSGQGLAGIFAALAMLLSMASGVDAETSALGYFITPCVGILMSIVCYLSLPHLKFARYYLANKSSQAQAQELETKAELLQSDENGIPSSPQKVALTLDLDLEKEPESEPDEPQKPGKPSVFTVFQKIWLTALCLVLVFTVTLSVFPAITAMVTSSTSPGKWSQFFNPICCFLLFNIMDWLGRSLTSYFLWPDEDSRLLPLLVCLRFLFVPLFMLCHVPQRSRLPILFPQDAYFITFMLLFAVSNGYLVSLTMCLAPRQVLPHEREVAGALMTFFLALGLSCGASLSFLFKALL
Experimental: (§1) We used a Xenopus oocyte-based transport assay that was previously used to examine BA transport by plasma membrane–directed ENT3 with a truncated N-terminus (that harbors lysosomal targeting motif) to experimentally verify whether ENT2 is capable of translocating BAs across the cell membrane ([24]). We tested both ENT1 and ENT2 along with CNT2, a purine nucleoside-specific concentrative transporter, to investigate their capacities to transport radiolabeled BAs. […] Transport was measured at pH 7.4, which is the closest pH to the pH of the extracellular fluid in which cells are exposed to solutes such as BAs to conduct plasma membrane transport ([29]).
(§2) The generated pOX expression constructs were linearized with either the Not1 or Sac1 restriction enzymes. The digested products were purified via phenol‒chloroform extraction. The mRNAs were synthesized using mMESSAGE mMACHINE (Ambion) transcription kits according to the manufacturer’s instructions. The mRNAs were purified via lithium precipitation. Oocytes were procured from Ecocyte. Prior to experiments, procured oocytes were defolliculated by treating with collagenase A-OR II solution followed by washing with Barth’s solution. Following microscopic verification, selected oocytes were incubated to recover overnight at 25 °C in a shaker incubator. Fifty nanoliters (400–800 ng/μl) of equal amounts of mRNAs were injected into defolliculated oocytes the next day. Expression of plasmids was analyzed after RNA isolation from oocyte extracts and conducting qPCR analysis with gene-specific primers as described earlier ([30]). The injected oocytes were incubated at 15 °C for 24 h before transport assays were performed. The uptake of radiolabeled substrates was measured after a 30 min incubation in transport buffer (100 mM NaCl, 2 mM KCl, 1 mM CaCl2, 1 mM MgCl2, and 10 mM Hepes, pH 7.4) at room temperature. Uptake was terminated by washing the oocytes three times with arrest buffer containing 20 mM uridine. Individual oocytes were shaken overnight in 10% SDS for complete dissolution, and then the radioactivity was quantified with a Beckman liquid scintillation counter. The data are presented as the mean ± SD (n = 8–12 oocytes). A representative experiment from 3 to 5 independent experiments is presented.

ENT1 = molecular target: T2, ENT1 (Homo sapiens, UniProt Q99808); assay: Radiolabeled BA transport in ENT1 mRNA-injected Xenopus oocytes; conditions: 3H-labelled BA, Na+-containing buffer, pH 7.4
T2 construct: The complete ORF of ENT1 (amplified using forward primer); expressed in transfected cells; host or cells: Xenopus laevis oocytes injected with in vitro-transcribed capped mRNA from pOX-hENT1
T2 sequence (Q99808 1-456): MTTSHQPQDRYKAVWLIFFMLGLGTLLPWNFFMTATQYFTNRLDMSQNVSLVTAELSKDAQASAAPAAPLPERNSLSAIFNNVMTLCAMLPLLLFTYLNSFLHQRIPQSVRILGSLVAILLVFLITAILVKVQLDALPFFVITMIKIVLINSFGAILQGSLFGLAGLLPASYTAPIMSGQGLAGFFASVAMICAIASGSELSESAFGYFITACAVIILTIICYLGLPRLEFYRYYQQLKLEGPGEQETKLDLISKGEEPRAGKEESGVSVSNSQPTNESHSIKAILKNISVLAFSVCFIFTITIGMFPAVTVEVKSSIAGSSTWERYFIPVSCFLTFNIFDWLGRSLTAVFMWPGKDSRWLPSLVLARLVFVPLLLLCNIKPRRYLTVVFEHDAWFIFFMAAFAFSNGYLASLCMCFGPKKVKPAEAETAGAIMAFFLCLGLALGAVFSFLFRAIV
Experimental: as §1
as §2, with “Uptake was terminated by washing the oocytes three times with arrest buffer containing 20 mM uridine.” left out, “The data are presented as the mean ± SD (n = 8–12 oocytes). A representative experiment from 3 to 5 independent experiments is presented.” left out

CNT2 = molecular target: T3, CNT2 (Homo sapiens, UniProt O43868); assay: Radiolabeled BA transport in CNT2 mRNA-injected Xenopus oocytes; conditions: 3H-labelled BA, Na+-containing buffer, pH 7.4
T3 construct: expressed in transfected cells; host or cells: Xenopus laevis oocytes injected with in vitro-transcribed capped mRNA
T3 sequence (O43868 1-658): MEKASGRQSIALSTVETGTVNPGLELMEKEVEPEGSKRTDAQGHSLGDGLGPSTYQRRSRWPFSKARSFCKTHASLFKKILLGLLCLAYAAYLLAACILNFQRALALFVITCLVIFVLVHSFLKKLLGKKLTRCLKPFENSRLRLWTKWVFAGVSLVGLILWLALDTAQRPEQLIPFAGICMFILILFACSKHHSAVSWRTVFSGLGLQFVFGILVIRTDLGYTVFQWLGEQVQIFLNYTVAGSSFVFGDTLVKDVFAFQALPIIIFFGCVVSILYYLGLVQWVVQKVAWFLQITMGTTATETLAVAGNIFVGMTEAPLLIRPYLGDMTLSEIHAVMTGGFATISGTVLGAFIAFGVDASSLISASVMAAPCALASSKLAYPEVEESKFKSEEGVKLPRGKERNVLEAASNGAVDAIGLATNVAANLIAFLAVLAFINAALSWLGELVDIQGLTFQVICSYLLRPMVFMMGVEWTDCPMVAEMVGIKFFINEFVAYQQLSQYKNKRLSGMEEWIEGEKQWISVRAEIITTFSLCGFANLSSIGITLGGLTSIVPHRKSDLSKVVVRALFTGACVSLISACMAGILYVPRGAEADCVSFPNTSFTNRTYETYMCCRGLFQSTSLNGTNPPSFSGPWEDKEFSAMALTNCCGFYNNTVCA
Experimental: as §1
as §2, with “Uptake was terminated by washing the oocytes three times with arrest buffer containing 20 mM uridine.” left out, “The data are presented as the mean ± SD (n = 8–12 oocytes). A representative experiment from 3 to 5 independent experiments is presented.” left out

SMILES | Km (ENT2; oocytes, Fig. 2B) | Vmax of BA transport by ENT2 (ENT2; oocytes, Fig. 2B) | pH dependence of 3H-CA transport mediated by ENT2 (ENT2; pH 5.5 to pH 7.4) | transport of BA by ENT1 (ENT1) | transport of BA by CNT2 (CNT2) | fold increased transport activity compared with H2O-injected oocytes (ENT2)
C[C@H](CCC(=O)O)[C@H]1CC[C@H]2[C@@H]3[C@H](O)C[C@@H]4C[C@H](O)CC[C@]4(C)[C@H]3C[C@H](O)[C@]12C [CA, cholic acid] | ~195 µM | 2.84 pmol/oocyte∗30 min | not dependent on pH | incapable of transporting | incapable of transporting | –
C[C@H](CCC(=O)O)[C@H]1CC[C@H]2[C@@H]3CC[C@@H]4C[C@H](O)CC[C@]4(C)[C@H]3C[C@H](O)[C@]12C [DCA, deoxycholic acid] | – | 3.359 pmol/oocyte∗30 min | – | incapable of transporting | incapable of transporting | 1.78 fold
C[C@H](CCC(=O)NCCS(=O)(=O)O)[C@H]1CC[C@H]2[C@@H]3[C@H](O)C[C@@H]4C[C@H](O)CC[C@]4(C)[C@H]3C[C@H](O)[C@]12C [TCA, taurocholic acid] | – | – | – | incapable of transporting | incapable of transporting | 2.23 fold
